Laboratory results as given in PMC6995558, “Biological Evaluation, Molecular Docking, and SAR Studies of Novel 2-(2,4-Dihydroxyphenyl)-1H- Benzimidazole Analogues” (Biomolecules, 2019).
Read-outs that look alike come from different tables or passages of the source.

Key:
AChE = conditions: Figure 1; cited from earlier work
[1] = target: T1, Acetylcholinesterase (AChE, E.C. 3.1.1.7, from human erythrocytes) (Homo sapiens, UniProt P22303); assay: biochemical; format: biochemical; conditions: for IC50: means ± SD of three independent experiments; for Selectivity for AChE: IC50(BuChE)/IC50(AChE)
T1 construct: Acetylcholinesterase (AChE, E.C. 3.1.1.7, from human erythrocytes); purchased Sigma-Aldrich (Steinheim, Germany); host or cells: human erythrocytes (natural source)
T1 sequence (P22303 32-617 isoform P22303-2 limits assumed): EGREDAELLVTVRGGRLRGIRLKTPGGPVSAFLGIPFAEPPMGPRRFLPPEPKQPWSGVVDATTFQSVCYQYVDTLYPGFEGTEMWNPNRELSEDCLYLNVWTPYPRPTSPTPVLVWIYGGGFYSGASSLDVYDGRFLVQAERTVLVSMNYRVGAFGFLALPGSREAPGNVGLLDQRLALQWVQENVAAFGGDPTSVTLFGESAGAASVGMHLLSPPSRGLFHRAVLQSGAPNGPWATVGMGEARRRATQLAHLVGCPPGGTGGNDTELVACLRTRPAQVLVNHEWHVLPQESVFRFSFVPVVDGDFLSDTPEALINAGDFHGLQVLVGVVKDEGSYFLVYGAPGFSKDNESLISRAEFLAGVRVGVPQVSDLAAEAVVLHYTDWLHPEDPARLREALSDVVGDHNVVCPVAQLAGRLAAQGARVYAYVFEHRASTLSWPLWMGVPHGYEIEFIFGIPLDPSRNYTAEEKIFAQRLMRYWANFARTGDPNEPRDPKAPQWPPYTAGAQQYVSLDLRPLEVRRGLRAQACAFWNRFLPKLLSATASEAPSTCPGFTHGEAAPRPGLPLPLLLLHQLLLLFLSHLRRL
Experimental: (§1) The details were described previously.
(§2) Their potency was determined using the modified Ellman’s method and expressed as the half of maximal inhibitory concentration, IC50 [34].

[2] = target: T2, butyrylcholinesterase (BuChE, E.C. 3.1.1.8, from equine serum) (Equus caballus, UniProt P81908); assay: biochemical
T2 construct: butyrylcholinesterase (BuChE, E.C. 3.1.1.8, from equine serum); purchased Sigma-Aldrich (Steinheim, Germany); host or cells: equine serum (natural source)
T2 sequence (P81908 whole entry): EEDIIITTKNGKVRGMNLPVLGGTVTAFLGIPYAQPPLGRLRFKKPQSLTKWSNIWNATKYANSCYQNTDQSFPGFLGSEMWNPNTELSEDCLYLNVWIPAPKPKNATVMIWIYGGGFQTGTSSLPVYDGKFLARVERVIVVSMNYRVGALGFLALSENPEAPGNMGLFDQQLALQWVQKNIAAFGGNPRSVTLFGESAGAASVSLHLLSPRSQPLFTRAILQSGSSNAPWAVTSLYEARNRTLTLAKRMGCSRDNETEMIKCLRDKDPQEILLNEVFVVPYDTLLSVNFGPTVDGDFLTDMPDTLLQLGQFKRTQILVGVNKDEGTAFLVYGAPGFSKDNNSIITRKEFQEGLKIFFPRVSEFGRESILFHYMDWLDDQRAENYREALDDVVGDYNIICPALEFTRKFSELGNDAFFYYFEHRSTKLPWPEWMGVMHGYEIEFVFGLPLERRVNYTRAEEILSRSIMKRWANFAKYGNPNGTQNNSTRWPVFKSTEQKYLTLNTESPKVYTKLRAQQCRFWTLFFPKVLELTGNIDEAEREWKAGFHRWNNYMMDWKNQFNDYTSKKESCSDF
Experimental: as §1, §2

[3] = RP-18 HPLC chromatography lipophilicity estimation; format: physicochemical; conditions: for −S (slope): methanol/acetate buffer pH 4.0; for log kw (intercept): methanol/acetate buffer pH 4.0, extrapolated to pure water
Experimental: The Eurosil Bioselect C18 (5 μm, 300 × 4.6 mm) column was used as the stationary phase. The mobile phase consisted of different volume mixtures of methanol and 20 mM acetate buffer as the aqueous phase to give pH 4.0. The organic modifier concentration ranged from 0.30 to 0.75, depending on the structure of the compound at 0.05 (0.1) intervals. The flow rate was 0.5 cm^3·min^−1 at room temperature. Measurements were made at 292 nm. The retention time of an unretained solute (t0) was determined by the injection of a small amount of acetone dissolved in water. […] This is described by the Soczewiński–Wachtmeister dependence: log k = log kw + S (% organic modifier)(1) in which log kw is the retention factor of a solute with pure water as the mobile phase (intercept) and S is the regression curve (slope). The log k values were calculated as log k = log (tR − t0)/t0, where tR is the retention time of a solute and t0 is the retention time of an unretained solute.
To find the structure–activity relationships, some quantities of the compounds were estimated (Table 5). They included the lipophilicity parameter log kw obtained by RP-HPLC and calculated in silico log P, the topological polar surface area (tPSA), and the molar refractivity (MR) (Table 5). The log kw and S parameters obtained by the extrapolation technique are commonly used as lipophilicity descriptors.

[4] = In vitro antioxidant activity assay (DPPH radical scavenging); conditions: DPPH 100 μM in methanol, 37 °C, 30 min; means ± SD of three experiments; read-out: IC50(DPPH) radical scavenging effect
Experimental: Antioxidant activity of each compound and standards (rutin) was assessed based on the radical scavenging effect of stable DPPH free radical. An amount of 10 μL of each tested compound or standard series of different concentrations (from 0.0 to 100 µM) was added to 9 mL of methanol solution of 2,2-diphenyl-1-picrylhydrazyl (DPPH) (100 μM). After incubation at 37 °C for 30 min, decrease in the absorbance of each solution was measured at 520 nm. The absorbance of the blank sample containing the same amount of DMSO and DPPH solution was also prepared and measured. All experiments were conducted in triplicate. The scavenging potential was compared with a solvent control (0% radical scavenging) and the standard compound. Radical scavenging activity (%AA) was calculated by the following formula: (%AA) = [(A0 − A1)/A0] × 100%(3) in which (A0) is the absorbance of the blank sample and (A1) is the absorbance of the tested compound (t = 30 min).
Reactive oxygen species are a causal factor in the process of aging and the cumulative damage has been associated with AD [45]. In this study, the DPPH radical scavenging activity of the newly synthesized compounds was estimated using the Brand-Williams method.

[5] = target: T3, Amyloid β-peptide (1–42) (Aβ42) (Homo sapiens, UniProt P05067); assay: biochemical; conditions: ThT fluorescence, 24 h at 37 °C; means ± SD of three experiments; read-out: IC50(Aβ(1–42)) self-induced aggregation
T3 construct: Amyloid β-peptide, (1–42) (Aβ42), was purchased from Aldrich; purchased Aldrich
T3 sequence (P05067 672-713 limits assumed): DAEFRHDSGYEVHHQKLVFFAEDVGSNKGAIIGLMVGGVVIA
Experimental: Amyloid β-peptide, (1–42) (Aβ42), was purchased from Aldrich. Aβ42 was diluted in the phosphate buffer (pH 8.0) to obtain a 125.8 µM solution. The compounds under study were first dissolved in a small amount of methanol, and then further diluted in the phosphate buffer to the final concentration of 5–160 μM. To study the Aβ42 aggregation inhibition, the fluorescence emission of thioflavin T (ThT) was followed with curcumin as the reference compound [35, 36]. At first, the Aβ42 (10 μL) samples and the tested compounds (10 μL) were diluted with the phosphate buffer (60 μL) and then they were incubated for 24 h at 37 °C without stirring. As for the control, a sample of the peptide was incubated without the inhibitor. The tests were carried out in black, flat-bottom, 96-well plates. Then 20 µL of 2.5 µM ThT in 50 mM glycine–NaOH (pH 8.5) was added and incubated for 5 min. Fluorescence was monitored with the excitation at 446 nm and the emission at 490 nm. A time scan of fluorescence was performed and the intensity values reached the plateau (300 s). […]. The reported values were obtained as the mean ± SD of triplicate of three independent experiments.
Nowadays, the amyloid hypothesis has become the dominating paradigm for understanding AD [44]. Aβ(1–42) is the most amyloidogenic Aβ fragment found in the AD plaques. […].

[6] = means ± SD of three experiments, read-out: BuChE IC50

Row | Compound | IC50 (AChE) [nM] | Activity against AChE (in words) [1] | IC50 [1] [nM] | IC50 [2, 6] [nM] | −S (slope) [3] | log kw (intercept) [3] | IC50 [4] [nM] | Selectivity for AChE with respect to BuChE (in words) [1] | Selectivity for AChE [1] | IC50 [2] [nM] | IC50 [5] [nM]
1 | Clc1ccc2[nH]c(-c3ccc(OCCN4CCCCC4)cc3)nc2c1 [compound a] | 130 |  |  |  |  |  |  |  |  |  | 
2 | CCOC(=O)c1ccc2[nH]c(-c3c(O)cc(O)cc3O)nc2c1 [Compound 10, Ethyl 2-(2,4,6-trihydroxyphenyl)-1H-benzimidazole-5-carboxylate] |  | inactive | > 500000 | > 500000 | 3.237 | 2.088 |  |  |  |  | 
3 | CCc1cc(-c2nc3ccc(C#N)cc3[nH]2)c(O)cc1O [Compound 12, 2-(5-Ethyl-2,4-dihydroxyphenyl)-1H-benzimidazole-6-carbonitrile] |  |  | > 500000 | > 500000 | 4.854 | 3.360 | 209 ± 20 |  |  |  | 
4 | CCc1cc(-c2nc3cc(C(F)(F)F)cc(Cl)c3[nH]2)c(O)cc1O [Compound 4, 4-(7-Chloro-5-(trifluoromethyl)-1H-benzimidazol-2-yl)-6-ethylbenzene-1,3-diol] |  |  | 118 ± 9 | 46030 ± 104 | 4.635 | 4.237 |  | highly selective | 390.0 |  | 
5 | CCN(CC)Cc1cc(-c2nc3cc([N+](=O)[O-])ccc3[nH]2)ccc1O [compound b] | 930 |  |  |  |  |  |  |  |  |  | 
6 | Oc1ccc(-c2nc3ccccc3[nH]2)c(O)c1 [bib-1,3-diol, 4-(1H-benzimidazol-2-yl)benzene-1,3-diol, reference compound] |  |  | 284 ± 14 | 31020 ± 133 | 2.979 | 1.732 |  |  | 109.2 |  | 
7 | COc1ccc2nc(-c3ccc(O)c(O)c3O)[nH]c2c1 [Compound 7, 4-(6-Methoxy-1H-benzimidazol-2-yl)benzene-1,2,3-triol] |  | inactive | > 500000 | > 500000 | 3.870 | 3.589 |  |  |  |  | 
8 | O=C1c2ccccc2C(=O)N1CCCn1c[n+](Cc2cccc3ccccc23)c2ccccc21 [d] | 56 |  |  |  |  |  |  |  |  |  | 
9 | CN(C)C(=O)Oc1cccc([N+](C)(C)C)c1 [neostigmine, reference compound] |  |  |  |  |  |  |  |  |  | 68 ± 5 | 
10 | Oc1cc(O)c(-c2nc3cc(Cl)c(Cl)cc3[nH]2)cc1Cl [Compound 2, 4-(5,6-Dichloro-1H-benzimidazol-2-yl)-6-chlorobenzene-1,3-diol] |  |  | 541 ± 36 | 22690 ± 78 | 5.770 | 5.460 | 213 ± 80 |  | 41.9 |  | 
11 | Cc1c(O)ccc(-c2nc3ccc(C(F)(F)F)cc3[nH]2)c1O [Compound 3, 4-[6-(Trifluoromethyl)-1H-benzimidazol-2-yl]-2-methylbenzene-1,3-diol] |  |  | 98 ± 5 | 14020 ± 111 | 6.299 | 5.720 |  |  | 143.1 |  | 
12 | CN1c2c(nn(-c3ccc(-c4nc5ccccc5[nH]4)cc3)c2-c2ccccc2)-c2ccccc2S1(=O)=O [compound f] | 11 |  |  |  |  |  |  |  |  |  | 
13 | O=[N+]([O-])c1ccc2nc(-c3ccc(O)cc3O)[nH]c2c1 [Compound 13, 4-(6-Nitro-1H-benzimidazol-2-yl)benzene-1,3-diol] |  |  | 1490 ± 118 | 106600 ± 201 | 4.655 | 2.475 |  |  | 71.7 |  | 
14 | CCOC(=O)c1ccc2[nH]c(-c3cc(CC)c(O)cc3O)nc2c1 [Compound 9, Ethyl 2-(5-ethyl-2,4-dihydroxyphenyl)-1H-benzimidazole-5-carboxylate] |  |  | 962 ± 23 | 43860 ± 381 | 4.160 | 3.067 |  |  | 45.6 |  | 
15 | CCOC(=O)c1ccc2[nH]c(-c3ccc(O)c(C)c3O)nc2c1 [Compound 8, Ethyl 2-(2,4-dihydroxy-3-methylphenyl)-1H-benzimidazole-5-carboxylate] |  |  | 184 ± 22 | 25350 ± 232 | 4.097 | 2.566 | 125 ± 60 |  | 137.8 |  | 
16 | Cc1c(O)ccc(-c2nc3ccc([N+](=O)[O-])cc3[nH]2)c1O [Compound 14, 2-Methyl-4-(6-nitro-1H-benzimidazol-2-yl)benzene-1,3-diol] |  |  | 1000 ± 196 | 88360 ± 155 | 4.596 | 2.674 |  |  | 88.1 |  | 
17 | Cc1c(O)ccc(-c2nc3ccc(C#N)cc3[nH]2)c1O [Compound 11, 2-(2,4-Dihydroxy-3-methylphenyl)-1H-benzimidazole-6-carbonitrile] |  |  | > 500000 | > 500000 | 3.867 | 3.590 |  |  |  |  | 
18 | C[C@@H]1O[C@@H](OC[C@H]2O[C@@H](Oc3c(-c4ccc(O)c(O)c4)oc4cc(O)cc(O)c4c3=O)[C@H](O)[C@@H](O)[C@@H]2O)[C@H](O)[C@H](O)[C@H]1O [rutin, reference compound] |  |  |  |  |  |  | 87 ± 40 |  |  |  | 
19 | COc1ccc2nc(-c3cc(Cl)c(O)cc3O)[nH]c2c1 [Compound 6, 4-(6-Methoxy-1H-benzimidazol-2-yl)-6-chlorobenzene-1,3-diol] |  |  | 92 ± 2 | 18710 ± 173 | 5.390 | 4.808 | 362 ± 10 | highly selective | 203.4 |  | 27000 ± 2290
20 | C=Cc1ccc(C[n+]2cn(C)c3ccccc32)cc1 [e] | 45 |  |  |  |  |  |  |  |  |  | 
